Where two headings read alike, the source gives them in different places.
Key:
A2058 (BRAF mutation) = experiment: MTT cell viability assay, A2058 melanoma; format: cell-based, human
How it was run: (§1)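 Cells (2×10^3 to 1×10^4/well) seeded overnight, then exposed to compounds for 24 h to 72 h. Growth read by MTT colorimetry at OD570. Viability expressed as % of vehicle (0.5% DMSO) control.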

[1] = test system: SK-N-MC neuroepithelioma line; experiment: MTT cell viability assay, SK-N-MC; format: cell-based; settings: Homo sapiens, 24 h
Description: (§2) Normal or cancer cells (2×10^3 to 1×10^4 cells/well) were seeded in 96-well plate for overnight and treated with different compounds for 24 h to 72 h. Cells growth were determined by MTT-based colorimetric assays according to. Viability of the test cells treated with vehicle (0.5% DMSO) only was defined as 100% viable. Survival of cells after treatment with DETDs was calculated using the following formula: viable cell number (%)=OD570 (treated cell culture)/OD570 (vehicle control)×100.
(§3) Based on toxicity results of DET and DETDs on different breast cancer and melanoma cell lines, we selected DETD-6, -32, -35 and -39, under the consideration of structure activity relationship for evaluating their suppression effect against other cancer types of cell line with indicated tumor origin in Table 5. […] The cells were treated with compounds for 24 h and then subjected to MTT assays.

MDA-MB-231 cells = experiment: Combination with gluthathione biosynthesis blockers (BSO, sulfasalazine), MTT; settings: for cell viability after pretreatment with BSO or sulfasalazine: 30 h pretreatment, then DET 12 μM or DETD-35 3 μM for 24 h; for combination effect with BSO: BSO at 0.5 μM, 3 μM, and above; for combination effect with sulfasalazine: sulfasalazine at 25 μM, 62 μM, and above
Description: Briefly, cells (5×10^3 cells/well) were seeded in 96-well plates and treated with BSO at concentrations 100 μM, 45 μM, 18 μM, 7.2 μM, 2.8 μM, 1.15 μM, 461 nM, 184 nM, 74 nM and 29 nM, and sulfasalazine at concentrations 62.75 μM, 25.10 μM, 10 μM, 4 μM, 1.6 μM, 642 nM, 257 nM, 102 nM, 41 nM and 16.4 nM for 30 h, and then 12 μM DET or 3 μM DETD-35 were added in the cultural medium to treat the cells for another 24 h. Cell proliferation was measured by MIT assay.

[2] = test system: MeWo (No NRAS or BRAF mutation); experiment: MTT cell viability assay, MeWo melanoma; format: cell-based, human; settings: 24 h
How it was run: as §1

[3] = test system: KATO III stomach cancer cell line; experiment: MTT cell viability assay, KATO III; format: cell-based; settings: Homo sapiens, 24 h
Description: as §2, §3

[4] = test system: MCF-7 (ER+, Her2−) human breast cancer cells; experiment: MTT cell viability assay, MCF-7 cells; format: cell-based
How it was run: (§4)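 Cells were seeded at 2×10^3 to 1×10^4 per well overnight, then exposed to compounds for 24 h to 72 h. Viability was read by MTT at OD570 as a percentage of the 0.5% DMSO vehicle control.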

[5] = test system: HCT-116 colon cancer cell line; experiment: MTT cell viability assay, HCT-116; format: cell-based; settings: Homo sapiens, 24 h
Description: as §2, §3

[6] = test system: MDA-MB-231 (ER−, PR−, Her2−) human breast cancer cells; experiment: MTT cell viability assay, MDA-MB-231 cells; format: cell-based; settings: for IC50: Homo sapiens
How it was run: as §4

B16-F10 (NRAS mutation) = experiment: MTT cell viability assay, B16-F10 melanoma; format: cell-based; settings: Mus musculus, B16-F10, 24 h
How it was run: as §1

[7] = test system: PC6 lung cancer cell line; experiment: MTT cell viability assay, PC6; format: cell-based; settings: 24 h
Description: as §2, §3

[8] = test system: A498 kidney cancer cell line; experiment: MTT cell viability assay, A498; format: cell-based; settings: Homo sapiens, 24 h
Description: as §2, §3

[9] = test system: RAW264.7 (normal macrophage); experiment: MTT cell viability assay, RAW264.7 macrophages; format: cell-based, mouse; settings: for IC50: Mus musculus, RAW264.7, 24 h
How it was run: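 RAW264.7 macrophages (2×10^5 cells/well) pretreated with compounds 1 h, then incubated 24 h with or without 100 ng/μL LPS. Viability by MTT colorimetric assay run in parallel with Griess nitrite measurement.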

A375 (BRAF mutation) = experiment: MTT cell viability assay, A375 melanoma; format: cell-based, human; settings: MTT
How it was run: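 A375 cells were seeded at 2×10^3 to 1×10^4 per well overnight and then exposed to compounds for 24 h to 72 h. Viability was measured by MTT absorbance at OD570 relative to 0.5% DMSO vehicle (100%), and IC50 was derived from it. Combination with PLX4032 was scored by combination index.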

[10] = test system: NES-SA uterus cancer cell line; experiment: MTT cell viability assay, NES-SA; format: cell-based; settings: 24 h
Description: as §2, §3

[11] = test system: Melanocyte (Normal cells); experiment: MTT cell viability assay, normal melanocytes; format: cell-based, human; settings: 24 h; for IC50: Homo sapiens, Melanocyte
How it was run: as §1

MDA-MB-231 cell motility = experiment: Time-lapse microscope analysis of cell motility; format: cell-based, human; settings: 12 h, control 186
Description: A 12 well cell culture plate was coated with 25 μg/mL fibronectin for 1 h and then seeded with 5×10^4 MDA-MB-231 cells in DMEM containing 10% serum. Twelve hours after seeding, time-lapse microscopy experiments were performed on an Inverted Confocal Microscope (LSM 510 META) equipped with an environmental chamber with phase-contrast optics (images taken every 30 min). Using the object-tracking application of Metamorph software (Molecular Devices), an average of 12 subsequent cell centroid displacements/30 min between two consecutive images were evaluated as cell velocities of migration. In total, cell trajectories were recorded for 24 h. These assays were made in treatments with vehicle (DMSO, 0.05%), DET (2.5, 4 and 10 μM), and DETD-35 (1.25, 2.5, 4 μM) added at the beginning of the time-lapse imaging/video taping.

[12] = test system: M10 normal mammary epithelial cells; experiment: MTT cell viability assay, M10 normal cells; format: cell-based, human; settings: 24 h; for IC50: Homo sapiens, Epithelial cell
How it was run: as §4

PC3 (Prostate) = experiment: MTT cell viability assay, PC3; format: cell-based; settings: 24 h
Description: as §2, §3

[13] = test system: DMBA/TPA-induced skin papillomas accelerated by PLX4032; settings: DMBA/TPA + PLX4032 20 mg/kg, with DET or DETD-35 10 mg/kg i.p. twice per week
Description: Dorsal skin of six weeks old female FVB/N mice were shaved and treated with topical application of DMBA (25 μg in 100 μL acetone). One week after DMBA treatment, the same skin area were treated topically twice weekly with 12-O-tetradecanoylphorbol-13-acetate (TPA) (4 μg in 100 μL acetone). The area was regularly shaved and tumor formation was assessed twice weekly, and tumors were defined as raised lesions of a minimum diameter of 1 mm.

U937 lymphoma line = experiment: MTT cell viability assay, U937; format: cell-based; settings: Homo sapiens, U-937, 24 h
Description: as §2, §3

[14] = MCF7, 24 h, read-out: IC50 on cell viability, MCF-7 (ER+, Her2−)
[15] = MCF7, Table 5, 24 h, read-out: IC50 viability MCF-7 (Breast)
[16] = MDA-MB-231, 24 h, read-out: IC50 on cell viability, MDA-MB-231 (ER−, PR−, Her2−)
[17] = MDA-MB-231, Table 5, 24 h, read-out: IC50 viability MDA-MB-231 (Breast)
[18] = 24 h, read-out: IC50 on cell viability, B16-F10 (NRAS mutation)
[19] = Table 5, 24 h, read-out: IC50 viability B16-F10 (mouse) (Skin)
[20] = Homo sapiens, A-375, 24 h, 24 h, read-out: IC50 on cell viability, A375 (BRAF mutation)

**Q.** How did the IC50 (A2058 (BRAF mutation); 24 h) turn out when `C=C(C)C(=O)O[C@H]1CC2=C[C@@H](C/C(C)=C/[C@H]3OC(=O)C(=C)[C@H]13)OC2=O` [DET, deoxyelephantopin, reference compound] was run?
**A.** The IC50 was greater than 10 µM.

**Q.** What about the IC50 (A2058 (BRAF mutation); Homo sapiens, A2058, 24 h) of the same molecule?
**A.** Its IC50 is greater than 10 µM.

**Q.** And the IC50 [1]?
**A.** Its IC50 is 0.51 µM.

**Q.** And the “cell viability after pretreatment with BSO or sulfasalazine” value (MDA-MB-231 cells)?
**A.** Its value is 1% or undetectable.

**Q.** And the “combination effect with BSO” value (MDA-MB-231 cells)?
**A.** Its value is “synergistic effects”.

**Q.** And the “cell viability, compound alone” value (MDA-MB-231 cells; DET 12 μM, DETD-35 3 μM, 24 h)?
**A.** Its value is “around 70%”.

**Q.** And the “combination effect with sulfasalazine” value (MDA-MB-231 cells)?
**A.** Its value is “synergistic effects”.

**Q.** What about the IC50 [2] of the same molecule?
**A.** Its IC50 is greater than 10 µM.

**Q.** And the IC50 ([2]; Homo sapiens, MeWo)?
**A.** Its IC50 is greater than 10 µM.

**Q.** What about the IC50 [3] of the same molecule?
**A.** Its IC50 is 1.47 µM.

**Q.** And the IC50 [4, 14]?
**A.** Its IC50 is 5 µM.

**Q.** What about the IC50 [4, 15] of the same molecule?
**A.** Its IC50 is 5 µM.

**Q.** And the IC50 [5]?
**A.** Its IC50 is 0.28 µM.

**Q.** And the IC50 [6, 16]?
**A.** The IC50 was 14 µM.

**Q.** What about the IC50 [6, 17] of the same molecule?
**A.** Its IC50 is 14 µM.

**Q.** And the IC50 (B16-F10 (NRAS mutation); [18])?
**A.** Its IC50 is roughly 6 µM.

**Q.** And the IC50 (B16-F10 (NRAS mutation); [19])?
**A.** Its IC50 is 6 µM.

**Q.** What about the IC50 [7] of the same molecule?
**A.** Its IC50 is 0.4 µM.

**Q.** And the IC50 [8]?
**A.** Its IC50 is 2.82 µM.

**Q.** And the IC50 [9]?
**A.** The IC50 was greater than 10 µM.

**Q.** What about the IC50 (A375 (BRAF mutation); 24 h, read-out: IC50 on cell viability, A375 (BRAF mutation)) of the same molecule?
**A.** Its IC50 is 5.9 µM.

**Q.** And the IC50 (A375 (BRAF mutation); [20])?
**A.** Its IC50 is roughly 6 µM.

**Q.** And the IC50 [10]?
**A.** Its IC50 is 0.9 µM.

**Q.** What about the IC50 [11] of the same molecule?
**A.** Its IC50 is greater than 10 µM.

**Q.** And the migration distance (MDA-MB-231 cell motility; 2.5 μM)?
**A.** The migration distance was 144 μm.

**Q.** What about the migration distance (MDA-MB-231 cell motility; 4 μM) of the same molecule?
**A.** The migration distance was 15 μm.

**Q.** And the migration distance (MDA-MB-231 cell motility; 10 μM)?
**A.** Its migration distance is 9 μm.

**Q.** And the IC50 [12]?
**A.** Its IC50 is greater than 7.5 µM.

**Q.** And the IC50 (PC3 (Prostate))?
**A.** Its IC50 is 12.8 µM.

**Q.** What about the “papillomas size in average” value [13] of the same molecule?
**A.** The value was 26.3 mm^3.

**Q.** And the total papillomas number [13]?
**A.** The total papillomas number was 11.7.

**Q.** And the IC50 (U937 lymphoma line)?
**A.** Its IC50 is 0.48 µM.

**Q.** What does the source list for `C=C1C(=O)O[C@H]2CC3=C[C@@H](C/C(C)=C/[C@@H](OC(=O)Cc4cccc5ccccc45)[C@H]12)OC3=O` [DETD-35]?
**A.** IC50 (A2058 (BRAF mutation); Homo sapiens, A2058, 24 h): 3.1 µM; IC50 [1]: 0.26 µM; cell viability after pretreatment with BSO or sulfasalazine (MDA-MB-231 cells): 1% or undetectable; combination effect with BSO (MDA-MB-231 cells): synergistic effects; viability at 3 µM (MDA-MB-231 cells; Homo sapiens, MDA-MB-231, 24 h, read-out: cell viability, compound alone): ~90%; combination effect with sulfasalazine (MDA-MB-231 cells): synergistic effects; IC50 ([2]; Homo sapiens, MeWo): 6 µM; IC50 [3]: 0.65 µM; IC50 [4, 14]: 3.2 µM; IC50 [4, 15]: 3.9 µM; IC50 [5]: 0.14 µM; IC60 on MDA-MB-231 cells ([6]; 24 h): 3.32 µM; IC50 [6, 16]: 3.5 µM; IC50 [6, 17]: 3.5 µM; IC50 (B16-F10 (NRAS mutation); [18]): 2.7 µM; IC50 (B16-F10 (NRAS mutation); [19]): 2.7 µM; IC50 [7]: 0.34 µM; IC50 [8]: 0.79 µM; IC50 on cell viability, RAW264.7 (normal macrophage) ([9]; 24 h): no detected toxicity; IC50 [9]: > 10 µM; IC50 (A375 (BRAF mutation); 72 h, read-out: IC50 on A375 cells): 0.8 µM; IC50 (A375 (BRAF mutation); [20]): 2.5 µM; IC50 (A375 (BRAF mutation); Homo sapiens, A-375, 72 h, 72 h, read-out: IC50 on A375 cells): 0.85 µM; IC50 [10]: 0.34 µM; IC50 on cell viability, Melanocyte (Normal cells) [11]: no detected toxicity; IC50 [11]: > 10 µM; migration distance (MDA-MB-231 cell motility; 1.25 μM): 70 μm; migration distance (MDA-MB-231 cell motility; 2.5 μM): 23 μm; migration distance (MDA-MB-231 cell motility; 4 μM): 3 μm; IC50 on cell viability, M10 (normal) [12]: no detected toxicity; IC50 [12]: > 7.5 µM; IC50 (PC3 (Prostate)): 5.5 µM; papillomas size in average [13]: 8.9 mm^3; total papillomas number [13]: 4.8; IC50 (U937 lymphoma line): 0.18 µM
